Test results: patent US12637428B2, “Isoquinoline derivatives as SIK2 inhibitors” (Cancer Research Technology Limited, priority 2019, dated 2026)

Assays:
Assay type in all cases: biochemical
Src = molecular target: T1, Src (Homo sapiens, UniProt P12931); experiment: Src kinase assay, IMAP fluorescence polarization; details: 50 or 100 μM ATP, average
T1 construct: purchased Life Technologies
Protocol: (§1) SIK2, SIK1, SIK3, Abl, Src and EPHA2 Kinase Assays
(§2) SIK2, SIK1, SIK3, Abl, Src and EPHA2 assays were performed using an IMAP fluorescence polarization assay format (Molecular Devices Inc.). 0.6-13 nM of each kinase (Life Technologies) was incubated for 60 min at room temperature with 100 nM of either FAM-Abltide, FAM-Srctide or FAM-HDAC protein derived peptide (synthesized by Alta Biosciences, Birmingham UK). Assays were carried out in the presence of 50 or 100 μM ATP in either 20 mM Tris buffer (pH 7.2) containing 4 mM MgCl2, 0.2% BSA and 2 mM DTT (SIK2, SIK1, SIK3, Abl, Src); or 20 mM Tris buffer (pH 8.5) containing 20 mM MgCl2, 0.5% BSA, 0.2% Triton and 5 mM DTT (EPHA2). Typically, dose response analyses were performed over concentration ranges from 0.00005-1 μM. Reactions were stopped by adding 2 assay volumes of 0.25% (v/v) IMAP binding reagent in either an 85:15 ratio (SIK2, SIK1, SIK3, Abl, EPHA2) or 30:70 ratio (Src) of IMAP binding buffers A and B (Molecular Devices). After incubation to allow the detection reagents to bind to the phosphorylated peptide, fluorescence polarization was measured on a Tecan Infinite plate reader at excitation (470 nm) and emission (530 nm) wavelengths. Inhibition was calculated using no inhibitor and no enzyme controls as 0 and 100% inhibition, respectively.
(§3) Table 3 provides details of the inhibitory constant (nM) of compounds of the invention at SIK1, SIK2 and SIK3 and other kinases.

EPHA2 = molecular target: T2, EPHA2 (Homo sapiens, UniProt P29317); experiment: EPHA2 kinase assay, IMAP fluorescence polarization; details: 50 or 100 μM ATP, Tris pH 8.5, average
T2 construct: purchased Life Technologies
Protocol: as §1, §2, §3

Abl = molecular target: T3, Abl (Homo sapiens, UniProt P00519); experiment: Abl kinase assay, IMAP fluorescence polarization; details: 50 or 100 μM ATP, average
T3 construct: purchased Life Technologies
Protocol: as §1, §2, §3

SIK1 = molecular target: T4, SIK1 (Homo sapiens, UniProt P57059); experiment: SIK1 kinase assay, IMAP fluorescence polarization; details: 50 or 100 μM ATP, average
T4 construct: purchased Life Technologies
Protocol: as §1, §2, §3

SIK3 = molecular target: T5, SIK3 (Homo sapiens, UniProt Q9Y2K2); experiment: SIK3 kinase assay, IMAP fluorescence polarization; details: 50 or 100 μM ATP, average
T5 construct: purchased Life Technologies
Protocol: as §1, §2, §3

SIK2 = molecular target: T6, SIK2 (Homo sapiens, UniProt Q9H0K1); experiment: SIK2 kinase assay, IMAP fluorescence polarization; details: 50 or 100 μM ATP, average
T6 construct: purchased Life Technologies
Protocol: as §1, §2, §3

T3 sequence (P00519 whole entry): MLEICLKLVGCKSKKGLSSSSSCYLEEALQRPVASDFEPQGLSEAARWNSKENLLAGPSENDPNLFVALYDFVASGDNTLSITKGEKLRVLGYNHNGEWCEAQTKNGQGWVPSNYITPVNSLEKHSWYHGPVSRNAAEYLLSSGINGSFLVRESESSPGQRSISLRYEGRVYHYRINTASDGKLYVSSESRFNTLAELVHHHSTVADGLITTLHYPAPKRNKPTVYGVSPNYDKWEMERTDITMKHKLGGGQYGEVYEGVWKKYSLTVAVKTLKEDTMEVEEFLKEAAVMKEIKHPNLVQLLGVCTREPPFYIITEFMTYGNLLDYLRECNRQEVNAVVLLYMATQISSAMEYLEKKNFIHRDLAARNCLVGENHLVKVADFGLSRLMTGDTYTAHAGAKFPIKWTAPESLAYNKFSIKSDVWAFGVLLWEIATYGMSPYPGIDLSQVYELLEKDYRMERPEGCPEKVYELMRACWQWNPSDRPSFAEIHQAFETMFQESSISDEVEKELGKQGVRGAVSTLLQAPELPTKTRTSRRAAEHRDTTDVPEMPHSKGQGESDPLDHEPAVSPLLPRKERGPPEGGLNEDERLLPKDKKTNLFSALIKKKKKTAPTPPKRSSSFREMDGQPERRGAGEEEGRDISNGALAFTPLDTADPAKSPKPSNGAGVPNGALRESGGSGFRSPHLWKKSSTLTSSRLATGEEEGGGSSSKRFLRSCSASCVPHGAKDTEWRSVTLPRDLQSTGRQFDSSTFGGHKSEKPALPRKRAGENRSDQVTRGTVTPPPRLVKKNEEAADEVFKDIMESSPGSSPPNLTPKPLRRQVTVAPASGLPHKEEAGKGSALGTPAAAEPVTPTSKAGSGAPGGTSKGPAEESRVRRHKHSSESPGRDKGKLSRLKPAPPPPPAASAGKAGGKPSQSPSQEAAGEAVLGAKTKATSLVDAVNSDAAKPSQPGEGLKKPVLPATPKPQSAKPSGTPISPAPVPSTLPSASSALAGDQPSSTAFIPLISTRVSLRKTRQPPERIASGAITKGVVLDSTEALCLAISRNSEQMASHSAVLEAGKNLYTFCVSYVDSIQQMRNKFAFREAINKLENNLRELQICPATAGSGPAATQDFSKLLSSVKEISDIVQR
T6 sequence (Q9H0K1 whole entry): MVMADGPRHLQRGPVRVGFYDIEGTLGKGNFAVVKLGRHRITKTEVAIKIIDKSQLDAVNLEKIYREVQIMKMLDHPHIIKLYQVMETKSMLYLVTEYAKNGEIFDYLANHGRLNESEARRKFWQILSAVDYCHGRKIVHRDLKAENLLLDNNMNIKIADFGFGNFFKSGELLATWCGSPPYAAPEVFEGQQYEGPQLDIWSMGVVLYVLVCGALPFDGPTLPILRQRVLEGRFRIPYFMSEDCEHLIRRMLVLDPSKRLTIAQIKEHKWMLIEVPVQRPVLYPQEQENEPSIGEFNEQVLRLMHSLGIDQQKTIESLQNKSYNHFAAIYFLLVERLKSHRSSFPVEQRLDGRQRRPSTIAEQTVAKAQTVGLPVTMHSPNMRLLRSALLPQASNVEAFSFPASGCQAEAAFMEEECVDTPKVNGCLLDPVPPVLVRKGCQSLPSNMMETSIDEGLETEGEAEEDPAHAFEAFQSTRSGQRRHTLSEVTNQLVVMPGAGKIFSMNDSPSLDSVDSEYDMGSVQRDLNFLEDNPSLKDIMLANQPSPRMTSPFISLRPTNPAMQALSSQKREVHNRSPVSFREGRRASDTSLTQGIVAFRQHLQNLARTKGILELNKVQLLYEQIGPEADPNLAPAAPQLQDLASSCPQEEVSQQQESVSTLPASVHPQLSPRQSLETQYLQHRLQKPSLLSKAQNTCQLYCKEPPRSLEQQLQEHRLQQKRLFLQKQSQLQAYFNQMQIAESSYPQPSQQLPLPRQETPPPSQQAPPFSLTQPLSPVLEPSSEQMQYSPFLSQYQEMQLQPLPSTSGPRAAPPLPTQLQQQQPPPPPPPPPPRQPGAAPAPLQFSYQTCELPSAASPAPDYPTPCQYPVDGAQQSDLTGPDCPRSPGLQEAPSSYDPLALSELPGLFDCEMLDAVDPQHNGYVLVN
T1 sequence (P12931 whole entry): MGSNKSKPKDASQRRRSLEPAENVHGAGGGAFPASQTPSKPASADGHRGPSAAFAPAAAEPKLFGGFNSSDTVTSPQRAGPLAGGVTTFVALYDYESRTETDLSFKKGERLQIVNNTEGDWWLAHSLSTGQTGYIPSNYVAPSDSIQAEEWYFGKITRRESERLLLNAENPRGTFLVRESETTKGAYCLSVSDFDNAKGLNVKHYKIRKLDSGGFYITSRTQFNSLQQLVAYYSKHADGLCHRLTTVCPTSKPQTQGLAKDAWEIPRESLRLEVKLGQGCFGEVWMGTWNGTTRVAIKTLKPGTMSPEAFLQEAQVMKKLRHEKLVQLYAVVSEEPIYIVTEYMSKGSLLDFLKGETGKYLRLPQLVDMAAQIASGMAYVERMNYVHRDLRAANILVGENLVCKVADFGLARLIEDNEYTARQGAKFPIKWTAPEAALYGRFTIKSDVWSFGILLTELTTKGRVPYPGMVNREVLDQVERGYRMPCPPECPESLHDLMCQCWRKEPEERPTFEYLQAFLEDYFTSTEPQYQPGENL
T2 sequence (P29317 24-976): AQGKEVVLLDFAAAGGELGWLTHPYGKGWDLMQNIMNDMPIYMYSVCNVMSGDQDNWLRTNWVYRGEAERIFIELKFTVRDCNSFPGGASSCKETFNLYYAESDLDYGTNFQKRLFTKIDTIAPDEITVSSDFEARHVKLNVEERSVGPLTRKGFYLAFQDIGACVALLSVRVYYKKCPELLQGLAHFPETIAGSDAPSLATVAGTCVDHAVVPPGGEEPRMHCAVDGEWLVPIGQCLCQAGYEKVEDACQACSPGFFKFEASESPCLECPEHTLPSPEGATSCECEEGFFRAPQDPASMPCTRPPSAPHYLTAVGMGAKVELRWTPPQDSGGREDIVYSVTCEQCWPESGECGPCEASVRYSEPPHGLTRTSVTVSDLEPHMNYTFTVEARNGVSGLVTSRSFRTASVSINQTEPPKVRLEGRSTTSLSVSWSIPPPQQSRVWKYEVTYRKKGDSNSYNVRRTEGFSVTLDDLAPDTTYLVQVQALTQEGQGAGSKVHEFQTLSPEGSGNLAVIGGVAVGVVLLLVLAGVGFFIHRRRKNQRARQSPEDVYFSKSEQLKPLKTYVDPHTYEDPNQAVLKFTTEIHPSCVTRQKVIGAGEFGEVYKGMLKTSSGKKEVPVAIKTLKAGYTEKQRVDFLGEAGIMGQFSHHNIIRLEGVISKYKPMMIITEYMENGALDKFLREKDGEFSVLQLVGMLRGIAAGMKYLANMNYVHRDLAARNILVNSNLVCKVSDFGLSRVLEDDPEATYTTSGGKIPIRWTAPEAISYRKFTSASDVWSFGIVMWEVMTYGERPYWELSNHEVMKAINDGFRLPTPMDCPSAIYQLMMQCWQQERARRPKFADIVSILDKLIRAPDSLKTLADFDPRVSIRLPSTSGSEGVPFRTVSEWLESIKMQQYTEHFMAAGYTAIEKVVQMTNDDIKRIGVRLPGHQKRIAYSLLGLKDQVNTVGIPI
T4 sequence (P57059 whole entry): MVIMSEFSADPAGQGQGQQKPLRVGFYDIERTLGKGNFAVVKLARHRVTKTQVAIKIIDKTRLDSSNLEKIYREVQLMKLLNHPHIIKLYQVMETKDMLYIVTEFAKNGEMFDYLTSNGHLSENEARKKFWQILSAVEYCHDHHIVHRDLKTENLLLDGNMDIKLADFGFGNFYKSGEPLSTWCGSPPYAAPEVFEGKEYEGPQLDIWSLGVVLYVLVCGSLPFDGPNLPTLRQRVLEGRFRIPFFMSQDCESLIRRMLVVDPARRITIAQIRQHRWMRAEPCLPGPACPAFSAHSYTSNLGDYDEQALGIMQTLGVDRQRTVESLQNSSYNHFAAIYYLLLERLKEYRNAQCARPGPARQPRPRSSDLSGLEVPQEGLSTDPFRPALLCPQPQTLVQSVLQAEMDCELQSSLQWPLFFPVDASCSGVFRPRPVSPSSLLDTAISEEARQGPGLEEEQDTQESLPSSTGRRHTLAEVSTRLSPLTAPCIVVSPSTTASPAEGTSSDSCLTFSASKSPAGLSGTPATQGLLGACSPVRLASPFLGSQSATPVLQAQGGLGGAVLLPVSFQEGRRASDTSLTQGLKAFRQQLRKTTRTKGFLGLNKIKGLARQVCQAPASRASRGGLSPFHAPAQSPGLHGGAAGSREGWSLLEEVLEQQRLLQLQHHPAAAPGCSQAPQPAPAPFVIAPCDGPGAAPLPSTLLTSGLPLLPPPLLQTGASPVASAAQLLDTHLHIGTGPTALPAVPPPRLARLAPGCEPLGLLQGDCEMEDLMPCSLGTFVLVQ

Row | Ki (Src) [nM] | Ki (EPHA2) [nM] | Ki (Abl) [nM] | Ki (SIK1) [nM] | Ki (SIK3) [nM] | Ki (SIK2) [nM] | SMILES
1 | 153 | 122 | 16.3 | 0.364 | 0.352 | 0.0518 | Cc1cccc(F)c1-c1cc(NC2CCNCC2)c2cc(N)ncc2c1 [Example 1, 7-(2-Fluoro-6-methyl-phenyl)-N5-(4-piperidyl)isoquinoline-3,5-diamine]
2 | 157 | 64.6 | 11.1 | 0.524 | 1.37 | 0.18 | Cc1cccc(F)c1-c1cc(NC[C@H]2CCCNC2)c2cc(N)ncc2c1 [Example 2, 7-(2-fluoro-6-methyl-phenyl)-N5-[[(3S)-3-piperidyl]methyl]isoquinoline-3,5-diamine]
3 | 330 | 878 | 20.4 | 0.808 | 0.643 | 0.143 | Cc1cccc(F)c1-c1cc(NC2CNC2)c2cc(N)ncc2c1 [Example 3, N5-(azetidin-3-yl)-7-(2-fluoro-6-methyl-phenyl)isoquinoline-3,5-diamine]
4 | 138 | 644 | 7.79 | 0.354 | 0.231 | 0.0703 | Cc1cccc(F)c1-c1cc(N[C@@H]2CCNC2)c2cc(N)ncc2c1 [Example 4, 7-(2-fluoro-6-methyl-pheny)-N5-[(3R)-pyrrolidin-3-yl]isoquinoline-3,5-diamine]
5 |  |  |  |  |  | 26.1 | Nc1cc2c(NC3CCNCC3)cc(-c3c(F)cccc3Cl)cc2cn1 [Example 20, 7-(2-chloro-6-fluoro-phenyl)-N5-(4-piperidyl)isoquinoline-3,5-diamine]
6 | 723 |  | 487 |  |  | 27.3 | Cc1cccc(F)c1-c1ccc2c(C(=O)NC3CNC3)c(N)ncc2c1 [Example 32, 3-Amino-N-(azetidin-3-yl)-7-(2-fluoro-6-methyl-phenyl)isoquinoline-4-carboxamide]
7 |  |  |  |  |  | 11.8 | Cc1cccc(F)c1-c1ccc2c(C(=O)NCC3CNC3)c(N)ncc2c1 [Example 33, 3-amino-N-(azetidin-3-ylmethyl)-7-(2-fluoro-6-methyl-phenyl)isoquinoline-4-carboxamide]
8 |  |  |  |  |  | 41.5 | Cc1cccc(F)c1-c1ccc2c(C(=O)NCC3CCNCC3)c(N)ncc2c1 [Example 34, 3-amino-7-(2-fluoro-6-methyl-phenyl)-N-(4-piperidylmethyl)isoquinoline-4-carboxamide]
9 | 564 |  | 446 |  |  | 11.4 | Cc1cccc(F)c1-c1ccc2c(C(=O)NC3CCNCC3)c(N)ncc2c1 [Example 35, 3-amino-7-(2-fluoro-6-methyl-phenyl)-N-(4-piperidyl)isoquinoline-4-carboxamide]
10 |  |  |  |  |  | 18.2 | Cc1cccc(F)c1-c1ccc2c(C(=O)N[C@@H]3CCNC3)c(N)ncc2c1 [Example 36, 3-amino-7-(2-fluoro-6-methyl-phenyl)-N-[(3R)-pyrrolidin-3-yl]isoquinoline-4-carboxamide]
11 |  |  |  |  |  | 7.74 | Cc1cccc(F)c1-c1ccc2c(C(=O)N[C@H]3CCNC3)c(N)ncc2c1 [Example 37, 3-amino-7-(2-fluoro-6-methyl-phenyl)-N-[(3S)-pyrrolidin-3-yl]isoquinoline-4-carboxamide]
12 | 137 | 764 | 88.5 |  |  | 11.3 | Cc1cccc(Cl)c1-c1ccc2c(C(=O)NC3CNC3)c(N)ncc2c1 [Example 38, 3-amino-N-(azetidin-3-yl)-7-(2-chloro-6-methyl-phenyl)isoquinoline-4-carboxamide]
13 |  |  |  |  |  | 19.6 | Cc1cccc(Cl)c1-c1ccc2c(C(=O)NCC3CNC3)c(N)ncc2c1 [Example 39, 3-amino-N-(azetidin-3-ylmethyl)-7-(2-chloro-6-methyl-phenyl)isoquinoline-4-carboxamide]
14 |  |  |  |  |  | 39.5 | Cc1cccc(Cl)c1-c1ccc2c(C(=O)NCC3CCNCC3)c(N)ncc2c1 [Example 40, 3-amino-7-(2-chloro-6-methyl-phenyl)-N-(4-piperidylmethyl)isoquinoline-4-carboxamide]
15 | 58.4 |  | 190 | 6.07 | 61.7 | 3.75 | Cc1cccc(Cl)c1-c1ccc2c(C(=O)NC3CCNCC3)c(N)ncc2c1 [Example 41, 3-amino-7-(2-chloro-6-methyl-phenyl)-N-(4-piperidyl)isoquinoline-4-carboxamide]
16 | 136 |  | 345 |  |  | 6.54 | Cc1cccc(Cl)c1-c1ccc2c(C(=O)N[C@H]3CCNC3)c(N)ncc2c1 [Example 43, 3-amino-7-(2-chloro-6-methyl-phenyl)-N-[(3S)-pyrrolidin-3-yl]isoquinoline-4-carboxamide]
17 | 2420 |  | > 10000 |  |  | 11.7 | CN1CCC(Nc2cc(-c3c(F)cccc3Cl)cc3cnc(N)cc23)CC1 [Example 64, 7-(2-Chloro-6-fluoro-phenyl)-N5-(1-methyl-4-piperidyl)isoquinoline-3,5-diamine]
18 | 1350 |  | 296 |  |  | 7.68 | Cc1cccc(F)c1-c1cc(N2CC[C@@H](CN(C)C)C2)c2cc(N)ncc2c1 [Example 81, 5-[(3S)-3-[(dimethylamino)methyl]pyrrolidin-1-yl]-7-(2-fluoro-6-methyl-phenyl) isoquinolin-3-amine]
19 | 574 |  | 667 |  |  | 9.99 | Cc1cccc(F)c1-c1ccc2c(C(=O)NC3CCN(C)CC3)c(N)ncc2c1 [Example 87, 3-Amino-7-(2-fluoro-6-methyl-phenyl)-N-(1-methyl-4-piperidyl)isoquinoline-4-carboxamide]
20 |  |  |  |  |  | 32.3 | Cc1cccc(F)c1-c1ccc2c(C(=O)NCC3CN(C)C3)c(N)ncc2c1 [Example 90, 3-amino-7-(2-fluoro-6-methyl-phenyl)-N-[(1-methylazetidin-3-yl)methyl]isoquinoline-4-carboxamide]
21 |  |  |  |  |  | 47.6 | Cc1cccc(F)c1-c1ccc2c(C(=O)NCC3CCN(C)CC3)c(N)ncc2c1 [Example 91, 3-amino-7-(2-fluoro-6-methyl-phenyl)-N-[(1-methyl-4-piperidyl)methyl] isoquinoline-4-carboxamide]
22 |  |  |  |  |  | 16.8 | Cc1cccc(F)c1-c1ccc2c(C(=O)N[C@@H]3CCN(C)C3)c(N)ncc2c1 [Example 92, 3-amino-7-(2-fluoro-6-methyl-phenyl)-N-[(3R)-1-methylpyrrolidin-3-yl]isoquinoline-4-carboxamide]
23 |  |  |  |  |  | 26.8 | Cc1cccc(F)c1-c1ccc2c(C(=O)N[C@H]3CCN(C)C3)c(N)ncc2c1 [Example 93, 3-amino-7-(2-fluoro-6-methyl-phenyl)-N-[(3S)-1-methylpyrrolidin-3-yl]isoquinoline-4-carboxamide]
24 |  |  |  |  |  | 14.4 | Cc1cccc(Cl)c1-c1ccc2c(C(=O)NC3CN(C)C3)c(N)ncc2c1 [Example 94, 3-amino-7-(2-chloro-6-methyl-phenyl)-N-(1-methylazetidin-3-yl)isoquinoline-4-carboxamide]
25 |  |  |  |  |  | 31.6 | Cc1cccc(Cl)c1-c1ccc2c(C(=O)NCC3CN(C)C3)c(N)ncc2c1 [Example 95, 3-amino-7-(2-chloro-6-methyl-phenyl)-N-[(1-methylazetidin-3-yl)methyl]isoquinoline-4-carboxamide]
26 |  |  |  |  |  | 54.5 | Cc1cccc(Cl)c1-c1ccc2c(C(=O)NCC3CCN(C)CC3)c(N)ncc2c1 [Example 96, 3-amino-7-(2-chloro-6-methyl-phenyl)-N-[(1-methyl-4-piperidyl)methyl] isoquinoline-4-carboxamide]
27 |  |  |  |  |  | 13 | Cc1cccc(Cl)c1-c1ccc2c(C(=O)N[C@@H]3CCN(C)C3)c(N)ncc2c1 [Example 97, 3-amino-7-(2-chloro-6-methyl-phenyl)-N-[(3R)-1-methylpyrrolidin-3-yl]isoquinoline-4-carboxamide]
28 | 317 |  | 481 |  |  | 12.8 | Cc1cccc(Cl)c1-c1ccc2c(C(=O)N[C@H]3CCN(C)C3)c(N)ncc2c1 [Example 98, 3-amino-7-(2-chloro-6-methyl-phenyl)-N-[(3S)-1-methylpyrrolidin-3-yl]isoquinoline-4-carboxamide]
29 | > 10000 |  | 169 |  |  | 38.1 | Cc1cccc(F)c1-c1cc(N2CC[C@H](O)C2)c2cc(N)ncc2c1 [Example 105, (3S)-1-[3-amino-7-(2-fluoro-6-methyl-phenyl)-5-isoquinolyl]pyrrolidin-3-ol]
30 |  |  |  |  |  | 83.5 | Cc1cccc(F)c1-c1cc(NC2CCCCC2)c2cc(N)ncc2c1 [Example 111, N5-cyclohexyl-7-(2-fluoro-6-methyl-phenyl)isoquinoline-3,5-diamine]
